PubChem BioAssay (NCI)
Where “and” joins values, the source holds several entries; their conditions need not be identical. Identical values can stand only once.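 Tested at 5 concentrations; 48 h exposure; 96-well plates; endpoints linearly interpolated, else capped at highest concentration. GI50: concentration for 50% inhibition of growth. TGI is the concentration that stops growth completely.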

Experiments:
Assay in all cases: DTP human tumour cell line panel, 48 h
OVCAR-5 ovarian = system: OVCAR-5 ovarian
UO-31 renal = system: UO-31 renal
NCI-H23 lung = system: NCI-H23 lung
PC-3 prostate = system: PC-3 prostate
RXF 393 renal = system: RXF 393 renal
HL-60(TB) leukemia = system: HL-60(TB) leukemia
SK-MEL-28 melanoma = system: SK-MEL-28 melanoma
SF-539 CNS = system: SF-539 CNS
HCT-15 colon = system: HCT-15 colon
MDA-N = system: MDA-N
786-0 renal = system: 786-0 renal

Row | Structure (SMILES) | GI50 (OVCAR-5 ovarian) | TGI (OVCAR-5 ovarian) | GI50 (UO-31 renal) | TGI (UO-31 renal) | GI50 (NCI-H23 lung) | TGI (NCI-H23 lung) | GI50 (PC-3 prostate) | TGI (PC-3 prostate) | GI50 (RXF 393 renal) | TGI (RXF 393 renal) | GI50 (HL-60(TB) leukemia) | TGI (HL-60(TB) leukemia) | GI50 (SK-MEL-28 melanoma) | TGI (SK-MEL-28 melanoma) | GI50 (SF-539 CNS) | TGI (SF-539 CNS) | GI50 (HCT-15 colon) | TGI (HCT-15 colon) | TGI (MDA-N) | TGI (786-0 renal)
1 | COc1ccc(C2CC(c3cccc(Nc4ccncc4)c3)=NN2c2ccccc2)cc1 (configuration not stated) | 3.29 µM | 12.1 µM | 1.41 µM | 2.92 µM | 1.88 µM | 3.87 µM | 1.68 µM | 3.38 µM | 1.55 µM | 3.02 µM | 2 µM | 4.06 µM | 1.69 µM | 3.24 µM | 1.61 µM | 3.04 µM | 1.74 µM | 3.44 µM | – | –
2 | CCCCCCCCCCCCCCCCOC[C@H](COC(c1ccccc1)(c1ccccc1)c1ccccc1)O[P+](=S)OC (some centres not stated) | – | > 100 µM | – | > 100 µM | – | > 100 µM | – | > 100 µM | – | > 100 µM | – | > 100 µM | – | – | – | > 100 µM | – | > 100 µM | > 100 µM | > 100 µM
3 | CCOC(=O)CC1(N)CC2c3ccccc3OC(=O)C2C(=O)N1 (configuration not stated) | – | > 100 µM | – | > 100 µM | – | > 100 µM | – | > 100 µM | – | > 100 µM | – | > 100 µM | – | > 100 µM | – | – | – | > 100 µM | > 100 µM | > 100 µM
4 | COc1cc(COC(=O)N(C)[C@@H](Cc2ccccc2)C(=O)O)c([N+](=O)[O-])cc1OC | – | > 100 µM | – | > 100 µM | – | > 100 µM | – | > 100 µM | – | – | – | > 100 µM | – | – | – | > 100 µM | – | > 100 µM | > 100 µM | > 100 µM
5 | FC(F)(Sc1ncccn1)c1nc2ccccc2o1 | – | > 100 µM | – | > 100 µM | – | > 100 µM | – | > 100 µM | – | > 100 µM | – | – | – | > 100 µM | – | > 100 µM | – | > 100 µM | > 100 µM | > 100 µM
6 | CCCCCCCCCCCCCCCC[N+](C)(C)CCl | – | 21.6 µM | – | 27.9 µM | – | 27.8 µM | – | 7.96 µM | – | – | – | 3.12 µM | – | > 50.7 µM | – | 8.13 µM | – | 20.9 µM | 15.4 µM | 3.31 µM
7 | CC1(O)CC2C(CC1SCc1ccccc1)C2(C)C (configuration not stated) | – | 40.4 µM and 31.8 µM | 31.2 µM and 14.5 µM | > 100 µM and 27.9 µM | – | 58.5 µM and 27.4 µM | – | – | – | 35.6 µM and 28.6 µM | 28.3 µM and 10.2 µM | > 100 µM and 33.8 µM | – | > 100 µM and 35.4 µM | – | 60.2 µM and 33.4 µM | – | 65 µM and 30.6 µM | – | 42.7 µM and 29.3 µM
8 | N#CC(C#N)=C/C=C/c1ccccc1[N+](=O)[O-] | – | – | – | > 10 µM | – | > 10 µM | – | > 10 µM | – | 9.53 µM | – | > 10 µM | – | 5.47 µM | – | > 10 µM | – | > 10 µM | 6.29 µM | > 10 µM
9 | CC(CSc1nc2c(c(=N)n1-c1ccccc1)c(=S)n(-c1ccccc1)c(=S)n2-c1ccccc1)CN(C)C (configuration not stated) | – | 26.8 µM | – | – | – | 4.89 µM | – | 3.38 µM | – | 3.32 µM | – | 2.37 µM | – | 4.67 µM | – | 7.9 µM | – | 3.17 µM | 3.76 µM | 2.37 µM
10 | O=C(CN1CCCC1)Nc1ccc2c(c1)C1Oc3ccccc3CC1CO2 (configuration not stated) | – | 93.4 µM | – | 84.4 µM | – | > 100 µM | – | 68.3 µM | – | – | – | > 100 µM | – | – | – | 39.5 µM | – | 47.2 µM | 88.2 µM | 57.1 µM
11 | CN1CCN(Cc2ccc(C(=S)Nc3ccccc3)s2)CC1 | – | > 100 µM | – | > 100 µM | – | 61.8 µM | – | > 100 µM | – | – | – | > 100 µM | – | 36.1 µM | – | > 100 µM | – | 55.4 µM | > 100 µM | > 100 µM
12 | CC1(c2ccc(Cl)cc2)c2ccccc2C(=O)N1CCCN1C(=O)c2ccccc2C1=O (configuration not stated) | – | – | – | > 100 µM | – | 97.9 µM | – | > 100 µM | – | 94.5 µM | – | > 100 µM | – | > 100 µM | – | – | – | > 100 µM | > 100 µM | > 100 µM
13 | CC(C)(C)C(=O)C(N)C(=O)C(C)(C)C | – | > 100 µM | – | > 100 µM | – | – | – | > 100 µM | – | > 100 µM | – | > 100 µM | – | > 100 µM | – | > 100 µM | – | > 100 µM | > 100 µM | > 100 µM
14 | Cc1cc(C)c(C2=NO[C@@H]3[C@H]2C(=O)C=C2N(Cc4ccccc4)CCO[C@@]23O)c(C)c1 | – | > 100 µM | – | > 100 µM | – | > 100 µM | – | – | – | > 100 µM | – | > 100 µM | – | > 100 µM | – | > 100 µM | – | > 100 µM | – | –
15 | CC(C)(C)c1cc(C(C)(C)C)c2sc(=O)oc2c1O | – | 33.4 µM | – | 23.8 µM | – | – | – | 28 µM | – | 26.3 µM | – | 19.6 µM | – | 32.5 µM | – | 30.9 µM | – | 25.3 µM | 29.9 µM | 38.1 µM
16 | CN(Cc1ccccc1)C(=S)S | – | > 100 µM | – | 77.8 µM | – | > 100 µM | – | – | – | > 100 µM | – | 59.1 µM | – | > 100 µM | – | – | – | > 100 µM | > 100 µM | 40.7 µM
17 | Cc1cc(S(=O)(=O)NC2=NCc3c(F)cccc3N2)c(S)cc1Cl | – | > 100 µM | – | > 100 µM | – | – | – | > 100 µM | – | > 100 µM | – | > 100 µM | – | > 100 µM | – | > 100 µM | – | > 100 µM | > 100 µM | > 100 µM
18 | COc1cc(-c2cc(OC)c(OC)c3ccc(Br)cc23)c2cc(Br)ccc2c1OC | – | 39.2 µM | – | 73.7 µM | – | 45 µM | – | 58 µM | – | 41 µM | – | – | – | 45.7 µM | – | 38.8 µM | – | > 100 µM | 42.7 µM | 34.2 µM
19 | Cc1cn([C@H]2CN(O)C[C@@H](CO)O2)c(=O)[nH]c1=O | – | > 100 µM | – | > 100 µM | – | – | – | > 100 µM | – | > 100 µM | – | > 100 µM | – | > 100 µM | – | > 100 µM | – | > 100 µM | > 100 µM | > 100 µM
20 | CN(C)CCCNC(=O)N/N=C/c1ccccn1 | – | > 10 µM | – | > 10 µM | – | – | – | > 10 µM | – | > 10 µM | – | > 10 µM | – | > 10 µM | – | > 10 µM | – | > 10 µM | > 10 µM | –
21 | CCn1c(-c2cc3ccccc3cc2OC(C)=O)n[nH]c1=S | – | > 100 µM | – | > 100 µM | – | 87.9 µM | – | 39.2 µM | – | 33.5 µM | – | 19.5 µM | – | > 100 µM | – | > 100 µM | – | 87.1 µM | – | > 100 µM
